# Assays:
# alkB mutants = details: MMS 20 mM, alkB mutants compared with WT, FIG. 1
# WT E. coli = experiment: Alkylating-agent sensitivity assay (colony forming units); details: MMS 20 mM, 30 minutes at 37° C., FIG. 1
compound,measurement,setting,value
"COS(C)(=O)=O [MMS, Methyl methanesulfonate]",Sensitivity to MMS (CFU),alkB mutants,significantly increased
same,effect on bacterial growth (CFU),WT E. coli,minimal effect on bacterial growth

# Source: patent US12226426B2, “Combination therapy” (IMPERIAL COLLEGE INNOVATIONS LIMITED, priority 2018, dated 2025)
